Reference: patent publication US7384915B2, “Chimeric insulin-gad proteins for treating patients with type 1 diabetes or at risk of developing type 1 diabetes” (Alexion Pharmaceuticals, Inc., priority 1997, dated 2008)
Read-outs that look alike come from different tables or passages of the source.

What was measured:
[1] = tested on: NOD/SCID mice injected with diabetogenic spleen cells; assay: NOD/SCID adoptive transfer model of IDDM; type: in vivo, mouse; settings: IV, 300 ugs of antigen twice daily every other day, day 3 to day 9 after spleen cell transfer; FIG. 5
Method: Experiments in the NOD/SCID Adoptive Transfer Model: Spleen mononuclear cells were harvested from diabetic NOD mice of recent disease onset (diabetic not more than 3 weeks) and about 35×10^6 of these spleen cells in 0.2 ml of PBS were injected intravenously into 6-8 week old NOD/SCID mice. Onset of diabetes was monitored biweekly by urine glucose testing and confirmed by blood glucose testing on day 28 relative to the time of spleen cell transfer. At day 28, these mice were sacrificed and examined histologically.
Diabetogenic splenic mononuclear cells were harvested from newly diabetic NOD mice (onset less than 3 weeks previous). To initiate the destruction of islet beta cells and the development of diabetes, 8-12 week old NOD/SCID mice were injected intravenously with 35×10^6 diabetogenic spleen cells. The incidence and onset of diabetes were monitored biweekly by urine glucose testing and confirmed by blood glucose testing at the end of the experiment. The average onset time of diabetes after disease induction was approximately 25 days. IV treatment with IG2, IG3, or islet beta cell antigens was initiated on day 3. Animals were treated with 300 ugs of antigen twice daily every other day for a period of six days (from day 3 to day 9, where the time of spleen cell transfer was day 0).

[2] = tested on: non-diabetic male NOD mice; assay: CYTOXAN (cyclophosphamide) induced IDDM model, antigen treatment; type: in vivo, mouse; settings: FIG. 3
From the text: Experimental Methods Non-obese diabetic (NOD) mice are a strain of mice that are prone to the development of diabetes, and represent an accepted model system for the study of diabetes mellitus. These mice, designated NOD/MrkTacfBR, were purchased from Taconic Farms (Germantown, N.Y.). NOD SCID mice, designated NOD/SCID, are available from the Jackson Laboratories, Bar Harbor, Me. The incidence of diabetes by 200 days of age in these mice is 80% in females and 50% in males. At 110 days of age, fewer than 15% of the male NOD mice became diabetic. […] In contrast, animals treated with either ICB or either of GAD 65 250-273 or 520-555 peptides, experienced reductions to less than 50% incidence of diabetes. The therapeutic effects of treatment with combinations of ICB and the two GAD peptides were then examined (FIG. 3).

[3] = tested on: non-diabetic male NOD recipients
Method: CYTOXAN induction experiments: CYTOXAN (Cyclophosphamide) treatment can increase the incidence and accelerate the onset of diabetes in non-diabetic NOD mice. Randomly selected, non-diabetic male NOD mice, which were 100 to 110 days of age, were injected (ip) with cyclophosphamide (250 mg/kg) on day 0.
All the mice were subjected to urine glucose measurement 2-3 times per week for a period of 21 days after cyclophosphamide injection. The onset of diabetes was recorded as the first point at which two consecutive days of positive urine glucose results were obtained. Blood glucose was also measured to confirm the urine glucose results. […] At day 21, these mice were sacrificed and examined histologically.

“ICB: Oxidized bovine insulin Chain B purchased from Sigma (catalog no. I-6383)” was tested, and the “onset of disease in NOD/SCID recipients” value [1] was “only a slight delay in disease onset”.

“GAD 65 520-555: human GAD 65 peptide 520-555, sequence corresponding to amino acid residues 139-173 of SEQ ID NO:2 (EERMSRLSKVAPVIKARMMEYGTTMVSYQPLGDKV; IG2 fusion protein for hGAD65 (human glutamate decarboxylase))” was tested, and the “effect of addition to the ICB with GAD 65 250-273 combination on therapeutic efficacy” value [2] was “appeared to inhibit the therapeutic efficacy”.

`O=P1(N(CCCl)CCCl)NCCCO1` (centres unmarked) [CYTOXAN, cyclophosphamide] was tested, and the “# Diabetic/Total” value ([3]; CYTOXAN 200 mg/kg) was 2/7, the “% diabetic” value ([3]; CYTOXAN 200 mg/kg) was 28.6% and the Mean onset time ([3]; CYTOXAN 200 mg/kg) was 12. The “# Diabetic/Total” value ([3]; CYTOXAN 250 mg/kg) was 5/7, the “% diabetic” value ([3]; CYTOXAN 250 mg/kg) was 71.4% and the Mean onset time ([3]; CYTOXAN 250 mg/kg) was 11. For the same compound, the “# Diabetic/Total” value ([3]; CYTOXAN 300 mg/kg) was 5/7, the “% diabetic” value ([3]; CYTOXAN 300 mg/kg) was 71.4% and the Mean onset time ([3]; CYTOXAN 300 mg/kg) was 12.6.
